In patent US6759568B2, “High estrogen-sensitive medaka fish” (President of Hiroshima University, priority 2000, dated 2004):

Experiments:
Assay type in all cases: in vivo, Oryzias latipes
[1] = system: fertilized eggs (A), strain A of the transgenic medaka fish crossed with wild medaka fish; assay: Formation of thrombus by 17β-estradiol in fertilized eggs (A) of strain A transgenic medaka fish; settings: for fertilized eggs that caused the formation of the thrombi: fertilized eggs (A), 25° C., 3 days
Procedure: (§1) Medaka physiological saline solutions (40 mL for each) containing 17 β-estradiol in an amount of 2 ng/L, 20 ng/L, 200 ng/L, 2 μg/L, 1 mg/L, and 4 mg/L were supplied in culture plates, respectively. Three sets were prepared for each concentration. About 30 fertilized eggs (W) of 12-hours after fertilization which were obtained by mutual mating between wild medaka fish, were placed in the first set of culture plates. About 30 fertilized eggs (A) of 12-hours after fertilization which were obtained by crossing the strain A of the transgenic medaka fish with wild medaka fish, were placed in the second set of culture plates. About 30 fertilized eggs (C) of 12-hours after fertilization which were obtained by crossing the strain C of the transgenic medaka fish with wild medaka fish, were placed in the third set of culture plates. After the culture plates were incubated at 25° C. for 3 days, medaka embryos were checked under dissecting microscope with respect to formation of a thrombus. In almost 100% of the fertilized eggs (W), one or more thrombi were formed at the concentration of 4 mg/L of 17β-estradiol, but were not observed at the concentration of less than 4 mg/L. 1%, 3%, 8%, 49%, 55%, and 100% of the fertilized eggs (A) caused the formation of the thrombi at the concentrations of 2 ng/L, 20 ng/L, 200 ng/L, 2 μg/L, 1 mg/L, and 4 mg/L of 17β-estradiol, respectively. 19%, 41%, 75%, 73%, 60%, and 100% of the fertilized eggs (C) caused the formation of the thrombi at the same concentrations as mentioned above, respectively.

[2] = system: fertilized eggs (W) of wild medaka fish; assay: Formation of thrombus by 17β-estradiol in fertilized eggs (W) of wild medaka fish; settings: 25° C., 3 days
Procedure: as §1, with “19%, 41%, 75%, 73%, 60%, and 100% of the fertilized eggs (C) caused the formation of the thrombi at the same concentrations as mentioned above, respectively.” left out

[3] = system: fertilized eggs (C), strain C of the transgenic medaka fish crossed with wild medaka fish; assay: Formation of thrombus by 17β-estradiol in fertilized eggs (C) of strain C transgenic medaka fish; settings: for fertilized eggs that caused the formation of the thrombi: fertilized eggs (C), 25° C., 3 days
Procedure: as §1

With `C[C@]12CC[C@@H]3c4ccc(O)cc4CC[C@H]3[C@@H]1CC[C@@H]2O` [17β-estradiol] the “estrogen sensitivity relative to that of the wild medaka fish” value ([1]; fertilized eggs (A) versus wild medaka fish) was “thousand times”, the “fertilized eggs that caused the formation of the thrombi” value ([1]; 2 ng/L) was 1% and the “fertilized eggs that caused the formation of the thrombi” value ([1]; 20 ng/L) was 3%. The “fertilized eggs that caused the formation of the thrombi” value ([1]; 200 ng/L) was 8%, the “fertilized eggs that caused the formation of the thrombi” value ([1]; 2 μg/L) was 49% and the “fertilized eggs that caused the formation of the thrombi” value ([1]; 1 mg/L) was 55%. For the same compound, the “fertilized eggs that caused the formation of the thrombi” value ([1]; 4 mg/L) was 100%, the “fertilized eggs in which one or more thrombi were formed” value ([2]; 4 mg/L) was roughly 100% and the formation of thrombi ([2]; concentration of less than 4 mg/L) was “not observed”. The “estrogen sensitivity relative to that of the wild medaka fish” value ([3]; fertilized eggs (C) versus wild medaka fish) was “hundred thousand times”, the “fertilized eggs that caused the formation of the thrombi” value ([3]; 2 ng/L) was 19% and the “fertilized eggs that caused the formation of the thrombi” value ([3]; 20 ng/L) was 41%. For the same compound, the “fertilized eggs that caused the formation of the thrombi” value ([3]; 200 ng/L) was 75%, the “fertilized eggs that caused the formation of the thrombi” value ([3]; 2 μg/L) was 73% and the “fertilized eggs that caused the formation of the thrombi” value ([3]; 1 mg/L) was 60%. For the same compound, the “fertilized eggs that caused the formation of the thrombi” value ([3]; 4 mg/L) was 100%.
